# Where two headings read alike, the source gives them in different places.
# What was measured:
# hepatitis C replicon = hepatitis C replicon EC50; assay type: cell-based; details: Hepatitis C virus
# From the text: NS3-NS4 inhibition activity can be determined using known assay methods.
# NS3/NS4 complexes = NS3/NS4 complexes (Hepatitis C virus genotype 1a, UniProt P27958); assay: NS3/NS4 inhibition activity (IC50); assay type: biochemical
# In short: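 NS3/NS4 complexes were formed and compound inhibitory concentrations determined at ambient temperature (23 °C). The buffer contained 50 mM Tris-HCl pH 7.5, 15% glycerol, 0.6 mM LDAO, 25 μM NS4A peptide and 10 mM DTT.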
# [1] = Table 2, hepatitis C replicon, read-out: EC50
# [2] = Table 3, hepatitis C replicon, read-out: EC50
# NS3/NS4 complexes, sequence (P27958 1027-1657): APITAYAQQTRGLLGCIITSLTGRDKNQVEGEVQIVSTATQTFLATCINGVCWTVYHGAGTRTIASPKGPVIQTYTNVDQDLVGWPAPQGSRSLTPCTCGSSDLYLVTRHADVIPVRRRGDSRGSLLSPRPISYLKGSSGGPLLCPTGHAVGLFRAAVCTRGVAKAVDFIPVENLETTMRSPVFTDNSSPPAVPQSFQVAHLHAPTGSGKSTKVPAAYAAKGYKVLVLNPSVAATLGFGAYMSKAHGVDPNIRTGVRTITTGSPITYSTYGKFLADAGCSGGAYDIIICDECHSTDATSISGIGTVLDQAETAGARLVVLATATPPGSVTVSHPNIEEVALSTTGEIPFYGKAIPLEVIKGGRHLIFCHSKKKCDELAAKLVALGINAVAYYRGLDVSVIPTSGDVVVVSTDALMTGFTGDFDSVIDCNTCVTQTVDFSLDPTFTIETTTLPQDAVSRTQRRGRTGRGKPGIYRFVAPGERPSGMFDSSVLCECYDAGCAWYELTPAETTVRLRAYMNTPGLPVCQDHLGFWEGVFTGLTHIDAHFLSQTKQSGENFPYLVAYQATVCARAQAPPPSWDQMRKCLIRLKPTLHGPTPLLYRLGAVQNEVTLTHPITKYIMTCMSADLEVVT
# NS3/NS4 complexes, sequence (P27958 1658-1711): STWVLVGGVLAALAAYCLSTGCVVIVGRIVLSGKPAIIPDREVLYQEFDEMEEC
SMILES,EC50 (hepatitis C replicon; [1]) [nM],"IC50 (NS3/NS4 complexes; Table 2, read-out: IC50) [nM]",EC50 (hepatitis C replicon; [2]) [nM],"IC50 (NS3/NS4 complexes; Table 3, read-out: IC50) [nM]",also measured
CS(=O)(=O)N(Cc1ccccc1)[C@H]1CCCCC/C=C\[C@@H]2C[C@@]2(C(=O)NS(=O)(=O)C2CC2)NC(=O)[C@@H]2C[C@@H](Oc3nc4ccccc4s3)CN2C1=O [Compound 317],> 500,75 to 500,,,
Cc1cccc2c1nc(O[C@@H]1C[C@H]3C(=O)N[C@]4(C(=O)NS(=O)(=O)N(C)C)C[C@H]4/C=C\CCCCC[C@H](NC(=O)OC(C)(C)C)C(=O)N3C1)n2C(C)C [Compound 1140],,,< 10,< 10,
CC(=O)Nc1cccc(N[C@H]2CCCCC/C=C\[C@@H]3C[C@@]3(C(=O)NS(=O)(=O)C3(C)CC3)NC(=O)[C@@H]3C[C@@H](OC(=O)N4Cc5cccc(F)c5C4)CN3C2=O)c1 [Compound 1110],,,10 to 100,< 10,
CN(C)C(=O)O[C@@H]1C[C@H]2C(=O)N[C@]3(C(=O)NS(=O)(=O)C4(C)CC4)C[C@H]3/C=C\CCCCC[C@H](NC(=O)OC(C)(C)C)C(=O)N2C1 [Compound 1065],,,,< 10,EC50 (hepatitis C replicon): > 100 nM
CCn1c(O[C@@H]2C[C@H]3C(=O)N[C@]4(C(=O)NS(=O)(=O)C5(C)CC5)C[C@H]4/C=C\CCCCC[C@H](NC(=O)OC(C)(C)C)C(=O)N3C2)nc2ccccc21 [Compound 1048],,,< 10,< 10,
CC(C)(C)OC(=O)N[C@H]1CCCCC/C=C\[C@@H]2C[C@@]2(C(=O)NS(=O)(=O)C2CC2)NC(=O)[C@@H]2C[C@@H](Oc3nc4ccccc4s3)CN2C1=O [Compound 1009],,,< 10,< 10,
CC1(S(=O)(=O)NC(=O)[C@@]23C[C@H]2/C=C\CCCCC[C@H](Nc2cc(F)cc(C(F)(F)F)c2)C(=O)N2C[C@H](Oc4nccc5ccccc45)C[C@H]2C(=O)N3)CC1 [Compound 346],< 10,< 10,,,
CC1(S(=O)(=O)NC(=O)[C@@]23C[C@H]2/C=C\CCCCC[C@H](Nc2ccccc2)C(=O)N2C[C@H](Oc4nc5ccccc5nc4-c4cccs4)C[C@H]2C(=O)N3)CC1 [Compound 486],10 to 75,< 10,,,
COc1ccc2c(O[C@@H]3C[C@H]4C(=O)N[C@]5(C(=O)NS(=O)(=O)C6(C)CC6)C[C@H]5/C=C\CCCCC[C@H](Nc5ccc(F)cc5)C(=O)N4C3)cc(-c3nc(C(C)C)cs3)nc2c1C [Compound 362],< 10,< 10,,,
CC(C)(C)OC(=O)N[C@H]1CCCCC/C=C\[C@@H]2C[C@@]2(C(=O)NCCC(=O)NCc2ccccc2)NC(=O)[C@@H]2C[C@@H](O)CN2C1=O [Compound 1058],,,> 100,> 100,
CC1(S(=O)(=O)NC(=O)[C@@]23C[C@H]2/C=C\CCCCC[C@H](Nc2ccc(Cl)cc2)C(=O)N2C[C@H](Oc4nc5ccccc5s4)C[C@H]2C(=O)N3)CC1 [Compound 332],75 to 500,< 10,,,
CN(C)S(=O)(=O)NC(=O)[C@@]12C[C@H]1/C=C\CCCCC[C@H](NC(=O)OC(C)(C)C)C(=O)N1C[C@H](Oc3nc4ccccc4n3C)C[C@H]1C(=O)N2 [Compound 1130],,,< 10,< 10,
CC(C)(C)OC(=O)N[C@H]1CCCCC/C=C\[C@@H]2C[C@@]2(C(=O)NCCC(=O)NCc2ccccc2)NC(=O)[C@@H]2C[C@@H](OC(=O)N3Cc4cccc(F)c4C3)CN2C1=O [Compound 1052],,,> 100,> 100,
CC(C)n1c(O[C@@H]2C[C@H]3C(=O)N[C@]4(C(=O)NS(=O)(=O)C5(C)CC5)C[C@H]4/C=C\CCCCC[C@H](Nc4ccccc4)C(=O)N3C2)nc2c(F)cccc21 [Compound 469],< 10,< 10,,,
CC(C)n1c(O[C@@H]2C[C@H]3C(=O)N[C@]4(C(=O)NS(=O)(=O)N(C)C)C[C@H]4/C=C\CCCCC[C@H](NC(=O)OC(C)(C)C)C(=O)N3C2)nc2ccccc21 [Compound 1131],,,< 10,< 10,
CC(C)(C)c1cccc(N[C@H]2CCCCC/C=C\[C@@H]3C[C@@]3(C(=O)NS(=O)(=O)C3(C)CC3)NC(=O)[C@@H]3C[C@@H](OC(=O)N4Cc5cccc(F)c5C4)CN3C2=O)c1 [Compound 1126],,,< 10,< 10,
COc1ccc2c(O[C@@H]3C[C@H]4C(=O)N[C@]5(C(=O)NS(=O)(=O)C6(C)CC6)C[C@H]5/C=C\CCCCC[C@H](Nc5cc(F)cc(C(F)(F)F)c5)C(=O)N4C3)cc(-c3nc(C(C)C)cs3)nc2c1C [Compound 358],10 to 75,< 10,,,
CCn1c(O[C@@H]2C[C@H]3C(=O)N[C@]4(C(=O)NS(=O)(=O)C5(C)CC5)C[C@H]4CCCCCCC[C@H](NC(=O)OC(C)(C)C)C(=O)N3C2)nc2ccccc21 [Compound 1080],,,< 10,< 10,
CC(C)(C)OC(=O)N[C@H]1CCCCC/C=C\[C@@H]2C[C@@]2(C(=O)N2CCC[C@@H]2C(=O)NCc2ccccc2)NC(=O)[C@@H]2C[C@@H](OC(=O)N3Cc4cccc(F)c4C3)CN2C1=O [Compound 1057],,,,,"EC50 (hepatitis C replicon): > 100 nM; IC50 (NS3/NS4 complexes; IC50, Table 3): > 100 nM"
CC1(S(=O)(=O)NC(=O)[C@@]23C[C@H]2/C=C\CCCCC[C@H](Nc2cc(F)cc(C(F)(F)F)c2)C(=O)N2C[C@H](Oc4nc(-c5ccccc5)cs4)C[C@H]2C(=O)N3)CC1 [Compound 396],> 500,< 10,,,
CC1(S(=O)(=O)NC(=O)[C@@]23C[C@H]2/C=C\CCCCC[C@H](NCc2ccccc2)C(=O)N2C[C@H](Oc4nc5ccccc5s4)C[C@H]2C(=O)N3)CC1 [Compound 253],10 to 75,< 10,,,
COc1ccc2c(O[C@@H]3C[C@H]4C(=O)N[C@]5(C(=O)NS(=O)(=O)C6(C)CC6)C[C@H]5/C=C\CCCCC[C@H](Nc5ccc(F)c(C(F)(F)F)c5)C(=O)N4C3)cc(-c3nc(C(C)C)cs3)nc2c1C [Compound 374],< 10,< 10,,,
COc1ccc2c(O[C@@H]3C[C@H]4C(=O)N[C@]5(C(=O)NS(=O)(=O)N6CCCC6)C[C@H]5/C=C\CCCCC[C@H](Nc5ccccc5)C(=O)N4C3)cc(-c3nc(C(C)C)cs3)nc2c1C [Compound 455],< 10,< 10,,,

# — US8048862B2, “Macrocyclic inhibitors of hepatitis C virus replication” (priority 2008, dated 2011)
